According to the supplement of paper PMC10307832:

Compound: Cc1cc([C@@H](C)Nc2ccccc2C(=O)O)c2nc(N3CCOCC3)cc(=O)n2c1 [AZD6482] + COc1cccc2cc(-c3nc([C@H]4CC[C@H](C(=O)O)CC4)n4ncnc(N)c34)[nH]c12 [OSI-027] (partner 0.5 µM)
Assay: relative viability (nuclei count vs DMSO), 5 days (fraction); higher = more cells survive
Conditions: first compound 8 µM
How it was run: (§1)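 Relative viability is defined as nuclei in treated wells over nuclei in vehicle wells. Duplicate plates were run and medians reported. Lung cancer cell lines in 1536-well plates were dosed by pin tool one day after seeding, with one drug or with a fixed anchor-drug dose plus five library-drug doses (not always all listed) in √10 steps, and nuclei were counted after 5 days.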

Question: Which relative viability does the source give for NCI-H1563 here?
Answer: 0.619

Question: How did the relative viability turn out when NCI-H1944 was run?
Answer: 0.301

Question: How did the relative viability turn out when NCI-H1975 was run?
Answer: 0.427

Question: How did the relative viability turn out when RERF-LC-KJ was run?
Answer: 0.399

Question: Which relative viability does the source give for ABC-1 here?
Answer: 0.406

Question: Which relative viability does the source give for NCI-H358 here?
Answer: 0.312

Question: With NCI-H650 as the cell line, how does the relative viability read?
Answer: 0.356

Question: Which relative viability does the source give for PC-3 [JPC-3] here?
Answer: 0.633

Compound: COc1cc2nc(N3CCCN(C)CC3)nc(NC3CCN(Cc4ccccc4)CC3)c2cc1OC + C[C@]1(O)C[C@@H](c2nc(-c3ccc4ccc(-c5ccccc5)nc4c3)c3c(N)nccn32)C1 [Linsitinib] (partner 1 µM)
Assay: as above
Conditions: first compound 0.2 µM
How it was run: as §1

Question: With NCI-H2009 as the cell line, how does the relative viability read?
Answer: 1.24

Question: How did the relative viability turn out when A-427 was run?
Answer: 1.13

Question: How did the relative viability turn out when NCI-H661 was run?
Answer: 0.553

Question: For NCI-H1734, which relative viability is on record?
Answer: 0.964

Question: NCI-H460 was tested. Which relative viability did it give?
Answer: 0.73

Question: For NCI-H2347, which relative viability is on record?
Answer: 0.936

Question: SK-LU-1 was tested. Which relative viability did it give?
Answer: 0.996

Question: 201T was tested. Which relative viability did it give?
Answer: 1.06

Question: How did the relative viability turn out when NCI-H1915 was run?
Answer: 1.05

Question: With HCC-827 as the cell line, how does the relative viability read?
Answer: 1

Question: How did the relative viability turn out when LXF-289 was run?
Answer: 0.956

Question: How did the relative viability turn out when NCI-H23 was run?
Answer: 0.562

Question: NCI-H647 was tested. Which relative viability did it give?
Answer: 1.17

Question: Which relative viability does the source give for CAL-12T here?
Answer: 0.745

Question: How did the relative viability turn out when NCI-H1651 was run?
Answer: 1.02

Question: Which relative viability does the source give for EPLC-272H here?
Answer: 1.25

Question: Which relative viability does the source give for NCI-H2228 here?
Answer: 0.59

Question: How did the relative viability turn out when NCI-H1792 was run?
Answer: 0.61

Question: For NCI-H1355, which relative viability is on record?
Answer: 0.881

Question: How did the relative viability turn out when NCI-H3122 was run?
Answer: 1.01

Question: Which relative viability does the source give for NCI-H1437 here?
Answer: 1.06

Question: Which relative viability does the source give for NCI-H1755 here?
Answer: 0.974

Question: NCI-H2023 was tested. Which relative viability did it give?
Answer: 0.767

Question: How did the relative viability turn out when HCC-15 was run?
Answer: 0.895

Question: For PC-14, which relative viability is on record?
Answer: 0.923

Question: For EKVX, which relative viability is on record?
Answer: 0.986

Question: How did the relative viability turn out when LC-2-ad was run?
Answer: 0.889

Question: How did the relative viability turn out when NCI-H1563 was run?
Answer: 1.29

Question: Which relative viability does the source give for NCI-H1944 here?
Answer: 1.11

Question: How did the relative viability turn out when NCI-H1975 was run?
Answer: 0.989

Question: For RERF-LC-KJ, which relative viability is on record?
Answer: 0.883

Question: With ABC-1 as the cell line, how does the relative viability read?
Answer: 0.815

Question: Which relative viability does the source give for NCI-H358 here?
Answer: 0.837

Question: For NCI-H650, which relative viability is on record?
Answer: 0.866

Question: For PC-3 [JPC-3], which relative viability is on record?
Answer: 1

Same assay, conditions: first compound 0.6325 µM

Question: How did the relative viability turn out when NCI-H2009 was run?
Answer: 1.16

Question: With A-427 as the cell line, how does the relative viability read?
Answer: 1.06

Question: NCI-H661 was tested. Which relative viability did it give?
Answer: 0.56

Question: Which relative viability does the source give for NCI-H1734 here?
Answer: 0.811

Question: How did the relative viability turn out when NCI-H460 was run?
Answer: 0.792

Question: Which relative viability does the source give for NCI-H2347 here?
Answer: 0.927

Question: With SK-LU-1 as the cell line, how does the relative viability read?
Answer: 1.07

Question: With 201T as the cell line, how does the relative viability read?
Answer: 1.03

Question: How did the relative viability turn out when NCI-H1915 was run?
Answer: 1.08

Question: HCC-827 was tested. Which relative viability did it give?
Answer: 0.969

Question: LXF-289 was tested. Which relative viability did it give?
Answer: 0.954

Question: How did the relative viability turn out when NCI-H23 was run?
Answer: 0.733

Question: How did the relative viability turn out when NCI-H647 was run?
Answer: 1.03

Question: For CAL-12T, which relative viability is on record?
Answer: 0.829

Question: With NCI-H1651 as the cell line, how does the relative viability read?
Answer: 0.903

Question: How did the relative viability turn out when EPLC-272H was run?
Answer: 1.22

Question: For NCI-H2228, which relative viability is on record?
Answer: 0.587

Question: Which relative viability does the source give for NCI-H1792 here?
Answer: 0.512

Question: For NCI-H1355, which relative viability is on record?
Answer: 0.784

Question: With NCI-H3122 as the cell line, how does the relative viability read?
Answer: 1.01

Question: How did the relative viability turn out when NCI-H1437 was run?
Answer: 0.956

Question: Which relative viability does the source give for NCI-H1755 here?
Answer: 0.982

Question: How did the relative viability turn out when NCI-H2023 was run?
Answer: 0.643

Question: With HCC-15 as the cell line, how does the relative viability read?
Answer: 0.903

Question: How did the relative viability turn out when PC-14 was run?
Answer: 0.91

Question: How did the relative viability turn out when EKVX was run?
Answer: 0.922

Question: With LC-2-ad as the cell line, how does the relative viability read?
Answer: 0.818

Question: With NCI-H1563 as the cell line, how does the relative viability read?
Answer: 1.19

Question: NCI-H1944 was tested. Which relative viability did it give?
Answer: 1.23

Question: How did the relative viability turn out when NCI-H1975 was run?
Answer: 1.02

Question: With RERF-LC-KJ as the cell line, how does the relative viability read?
Answer: 0.856

Question: Which relative viability does the source give for ABC-1 here?
Answer: 0.66

Question: How did the relative viability turn out when NCI-H358 was run?
Answer: 0.66

Question: For NCI-H650, which relative viability is on record?
Answer: 0.77

Question: With PC-3 [JPC-3] as the cell line, how does the relative viability read?
Answer: 0.931

Same assay, conditions: first compound 2 µM

Question: NCI-H2009 was tested. Which relative viability did it give?
Answer: 1.24

Question: Which relative viability does the source give for A-427 here?
Answer: 1.13

Question: Which relative viability does the source give for NCI-H661 here?
Answer: 0.779

Question: With NCI-H1734 as the cell line, how does the relative viability read?
Answer: 0.832

Question: Which relative viability does the source give for NCI-H460 here?
Answer: 0.762

Question: How did the relative viability turn out when NCI-H2347 was run?
Answer: 0.882

Question: SK-LU-1 was tested. Which relative viability did it give?
Answer: 0.886

Question: Which relative viability does the source give for 201T here?
Answer: 1.04

Question: For NCI-H1915, which relative viability is on record?
Answer: 1.12

Question: HCC-827 was tested. Which relative viability did it give?
Answer: 0.967

Question: How did the relative viability turn out when LXF-289 was run?
Answer: 0.98

Question: Which relative viability does the source give for NCI-H23 here?
Answer: 0.833

Question: Which relative viability does the source give for NCI-H647 here?
Answer: 1.14

Question: Which relative viability does the source give for CAL-12T here?
Answer: 0.944

Question: How did the relative viability turn out when NCI-H1651 was run?
Answer: 1.09

Question: For EPLC-272H, which relative viability is on record?
Answer: 1.02

Question: With NCI-H2228 as the cell line, how does the relative viability read?
Answer: 0.83

Question: How did the relative viability turn out when NCI-H1792 was run?
Answer: 0.496

Question: For NCI-H1355, which relative viability is on record?
Answer: 0.831

Question: NCI-H3122 was tested. Which relative viability did it give?
Answer: 1.03

Question: Which relative viability does the source give for NCI-H1437 here?
Answer: 1.11

Question: For NCI-H1755, which relative viability is on record?
Answer: 0.946

Question: With NCI-H2023 as the cell line, how does the relative viability read?
Answer: 0.7

Question: How did the relative viability turn out when HCC-15 was run?
Answer: 0.95

Question: Which relative viability does the source give for PC-14 here?
Answer: 1.02

Question: With EKVX as the cell line, how does the relative viability read?
Answer: 1.07

Question: LC-2-ad was tested. Which relative viability did it give?
Answer: 0.891

Question: For NCI-H1563, which relative viability is on record?
Answer: 1.19

Question: Which relative viability does the source give for NCI-H1975 here?
Answer: 1.11

Question: RERF-LC-KJ was tested. Which relative viability did it give?
Answer: 0.894

Question: With ABC-1 as the cell line, how does the relative viability read?
Answer: 0.871

Question: Which relative viability does the source give for NCI-H358 here?
Answer: 0.741

Question: How did the relative viability turn out when NCI-H650 was run?
Answer: 0.943

Question: With PC-3 [JPC-3] as the cell line, how does the relative viability read?
Answer: 1.01

Same assay, conditions: first compound 6.325 µM

Question: For NCI-H2009, which relative viability is on record?
Answer: 1.24

Question: Which relative viability does the source give for A-427 here?
Answer: 1.18

Question: How did the relative viability turn out when NCI-H661 was run?
Answer: 0.634

Question: With NCI-H1734 as the cell line, how does the relative viability read?
Answer: 0.83

Question: Which relative viability does the source give for NCI-H460 here?
Answer: 0.267

Question: For NCI-H2347, which relative viability is on record?
Answer: 0.922

Question: Which relative viability does the source give for SK-LU-1 here?
Answer: 0.724

Question: 201T was tested. Which relative viability did it give?
Answer: 1

Question: NCI-H1915 was tested. Which relative viability did it give?
Answer: 1.08

Question: With HCC-827 as the cell line, how does the relative viability read?
Answer: 0.941

Question: LXF-289 was tested. Which relative viability did it give?
Answer: 0.923

Question: With NCI-H23 as the cell line, how does the relative viability read?
Answer: 0.53

Question: NCI-H647 was tested. Which relative viability did it give?
Answer: 0.599

Question: For CAL-12T, which relative viability is on record?
Answer: 0.726

Question: With NCI-H1651 as the cell line, how does the relative viability read?
Answer: 0.893

Question: Which relative viability does the source give for EPLC-272H here?
Answer: 1.1

Question: How did the relative viability turn out when NCI-H2228 was run?
Answer: 0.476

Question: For NCI-H1792, which relative viability is on record?
Answer: 0.598

Question: NCI-H1355 was tested. Which relative viability did it give?
Answer: 0.808

Question: How did the relative viability turn out when NCI-H3122 was run?
Answer: 1.06

Question: For NCI-H1437, which relative viability is on record?
Answer: 0.891

Question: NCI-H1755 was tested. Which relative viability did it give?
Answer: 0.932

Question: NCI-H2023 was tested. Which relative viability did it give?
Answer: 0.405

Question: With HCC-15 as the cell line, how does the relative viability read?
Answer: 0.734

Question: With PC-14 as the cell line, how does the relative viability read?
Answer: 0.865

Question: For EKVX, which relative viability is on record?
Answer: 0.891

Question: LC-2-ad was tested. Which relative viability did it give?
Answer: 0.833

Question: Which relative viability does the source give for NCI-H1563 here?
Answer: 1.16

Question: Which relative viability does the source give for NCI-H1944 here?
Answer: 1.13

Question: With NCI-H1975 as the cell line, how does the relative viability read?
Answer: 0.905

Question: Which relative viability does the source give for RERF-LC-KJ here?
Answer: 0.886

Question: ABC-1 was tested. Which relative viability did it give?
Answer: 0.936

Question: Which relative viability does the source give for NCI-H358 here?
Answer: 0.52

Question: For NCI-H650, which relative viability is on record?
Answer: 0.534

Question: With PC-3 [JPC-3] as the cell line, how does the relative viability read?
Answer: 0.903
